Among the data in ChEMBL document CHEMBL1126411, “Synthesis and HIV activity of phosphonate isosteres of D4T monophosphate” (Bioorg Med Chem Lett, 1992) are IC50 values, retold here.

The experiment concerns MT4. Nature of the experiment: Concentration required for the inhibition of HIV replication by 50% in MT-4 cells. The format is functional, cell-based. As to conditions: Homo sapiens.
The compound `Cc1cn([C@H]2C=C[C@@H](OCP(=O)(O)O)O2)c(=O)[nH]c1=O` registered an IC50 of 1.3 µM.
The figure for `Cc1cn([C@H]2C=C[C@@H](CCP(=O)(O)O)O2)c(=O)[nH]c1=O` is above 1000 µM.
The same measure for `Cc1cn([C@H]2C=C[C@@H](OCP(=O)(O)O)C2)c(=O)[nH]c1=O`: above 1000 µM.
The figure for `Cc1cn([C@H]2C=C[C@@H](CO)O2)c(=O)[nH]c1=O` [STAVUDINE] is 1.2 µM.

For orientation: IC50 means the midpoint of a concentration-inhibition curve. Read a low IC50 as greater potency.
